Laboratory results as given in patent US7214690B2, “Tricyclic quinolinone and tricyclic quinoline androgen receptor modulator compounds and methods” (Ligand Pharmaceuticals Incorporated, priority 2001, dated 2007).

What was measured:
Type in all cases: cell-based
PR = target: T1, PR (Homo sapiens, UniProt P06401); experiment: co-transfection assay, PR
T1 construct: expressed in transfected cells; host or cells: background cell substantially devoid of endogenous IRs (CV-1 described for the co-transfection assay)
T1 sequence (P06401 1-933): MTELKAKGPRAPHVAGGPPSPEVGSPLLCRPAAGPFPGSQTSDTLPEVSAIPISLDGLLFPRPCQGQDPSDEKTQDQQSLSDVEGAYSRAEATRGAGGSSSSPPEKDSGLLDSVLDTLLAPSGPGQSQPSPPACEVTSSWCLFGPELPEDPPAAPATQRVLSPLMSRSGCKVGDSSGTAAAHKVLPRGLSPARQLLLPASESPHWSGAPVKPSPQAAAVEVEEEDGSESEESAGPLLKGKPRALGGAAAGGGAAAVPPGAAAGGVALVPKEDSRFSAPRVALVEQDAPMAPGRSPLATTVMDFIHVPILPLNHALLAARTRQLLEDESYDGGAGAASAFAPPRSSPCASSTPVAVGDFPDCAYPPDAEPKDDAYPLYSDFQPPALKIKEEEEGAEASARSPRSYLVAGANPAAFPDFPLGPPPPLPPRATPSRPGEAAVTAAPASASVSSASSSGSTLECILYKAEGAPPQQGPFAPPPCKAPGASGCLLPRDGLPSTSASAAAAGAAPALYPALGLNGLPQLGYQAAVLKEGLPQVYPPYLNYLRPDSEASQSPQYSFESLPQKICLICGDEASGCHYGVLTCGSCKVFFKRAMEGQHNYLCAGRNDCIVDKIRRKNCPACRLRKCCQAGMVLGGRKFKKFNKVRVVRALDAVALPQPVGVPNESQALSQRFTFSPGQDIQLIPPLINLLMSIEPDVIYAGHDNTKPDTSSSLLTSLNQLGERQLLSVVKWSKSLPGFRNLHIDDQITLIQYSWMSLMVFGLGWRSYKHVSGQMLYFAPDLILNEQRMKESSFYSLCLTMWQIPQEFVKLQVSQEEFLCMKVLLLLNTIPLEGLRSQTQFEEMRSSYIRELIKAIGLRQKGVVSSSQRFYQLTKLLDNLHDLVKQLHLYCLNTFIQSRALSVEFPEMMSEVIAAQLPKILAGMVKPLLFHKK
Method: (§1) CV-1 cells (African green monkey kidney fibroblasts) were cultured in the presence of Dulbecco's Modified Eagle Medium (DMEM) supplemented with 10% charcoal resin-stripped fetal bovine serum (CH-FBS) then transferred to 96-well microtiter plates one day prior to transfection.
(§2) Three to four replicates were used for each sample.
(§3) After 40 hours, the cells were washed with PBS, lysed with a Triton X-100-based buffer and assayed for LUC and β-Gal activities using a luminometer or spectrophotometer, respectively. For each replicate, the normalized response (NR) was calculated as: LUC response/β-Gal rate • where β-Gal rate=β-Gal/β-Gal incubation time.

ER = target: T2, ER (Homo sapiens, UniProt P03372); experiment: co-transfection assay, ER
T2 construct: expressed in transfected cells; host or cells: background cell substantially devoid of endogenous IRs (CV-1 described for the co-transfection assay)
T2 sequence (P03372 1-595): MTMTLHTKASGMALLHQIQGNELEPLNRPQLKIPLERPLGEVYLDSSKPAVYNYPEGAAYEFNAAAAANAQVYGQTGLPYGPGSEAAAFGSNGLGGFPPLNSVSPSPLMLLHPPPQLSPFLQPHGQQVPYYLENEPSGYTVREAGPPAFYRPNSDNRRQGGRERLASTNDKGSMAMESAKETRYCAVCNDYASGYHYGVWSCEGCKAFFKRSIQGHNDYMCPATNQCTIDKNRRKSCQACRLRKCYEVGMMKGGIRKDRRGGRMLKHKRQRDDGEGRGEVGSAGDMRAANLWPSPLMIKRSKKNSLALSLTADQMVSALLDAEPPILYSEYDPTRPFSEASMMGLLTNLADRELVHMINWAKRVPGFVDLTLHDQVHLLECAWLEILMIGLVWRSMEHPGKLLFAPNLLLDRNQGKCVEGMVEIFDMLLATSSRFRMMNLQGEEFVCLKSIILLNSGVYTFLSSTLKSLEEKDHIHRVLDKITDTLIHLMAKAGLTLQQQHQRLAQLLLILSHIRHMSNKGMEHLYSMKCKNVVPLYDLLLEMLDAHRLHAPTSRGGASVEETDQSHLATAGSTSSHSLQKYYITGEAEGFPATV
Method: as §1, §2, §3

GR = target: T3, GR (Homo sapiens, UniProt P04150); experiment: co-transfection assay, GR
T3 construct: expressed in transfected cells; host or cells: background cell substantially devoid of endogenous IRs (CV-1 described for the co-transfection assay)
T3 sequence (P04150 1-777): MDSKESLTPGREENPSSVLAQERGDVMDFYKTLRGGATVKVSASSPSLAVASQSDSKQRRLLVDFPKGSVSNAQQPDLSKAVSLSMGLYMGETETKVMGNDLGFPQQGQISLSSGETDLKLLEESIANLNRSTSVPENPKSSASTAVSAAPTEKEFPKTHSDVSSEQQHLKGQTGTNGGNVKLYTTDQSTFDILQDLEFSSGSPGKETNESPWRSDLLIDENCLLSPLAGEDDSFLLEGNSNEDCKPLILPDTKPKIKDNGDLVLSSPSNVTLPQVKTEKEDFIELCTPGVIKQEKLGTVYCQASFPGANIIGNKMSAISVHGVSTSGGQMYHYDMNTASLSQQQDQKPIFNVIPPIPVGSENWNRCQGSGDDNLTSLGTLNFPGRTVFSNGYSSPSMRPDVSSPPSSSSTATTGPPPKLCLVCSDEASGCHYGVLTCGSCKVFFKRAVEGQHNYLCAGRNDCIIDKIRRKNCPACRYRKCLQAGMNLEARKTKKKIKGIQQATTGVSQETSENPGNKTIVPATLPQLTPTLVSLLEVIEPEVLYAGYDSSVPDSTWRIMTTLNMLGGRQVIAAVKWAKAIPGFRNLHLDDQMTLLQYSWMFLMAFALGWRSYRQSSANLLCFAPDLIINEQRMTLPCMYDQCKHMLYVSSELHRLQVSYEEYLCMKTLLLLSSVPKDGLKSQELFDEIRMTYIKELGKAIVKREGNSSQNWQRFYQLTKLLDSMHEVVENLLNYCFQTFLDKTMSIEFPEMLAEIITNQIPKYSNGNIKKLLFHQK
Method: as §1, §2, §3

MR = target: T4, MR (Homo sapiens, UniProt P08235); experiment: co-transfection assay, MR
T4 construct: expressed in transfected cells; host or cells: background cell substantially devoid of endogenous IRs (CV-1 described for the co-transfection assay)
T4 sequence (P08235 1-984): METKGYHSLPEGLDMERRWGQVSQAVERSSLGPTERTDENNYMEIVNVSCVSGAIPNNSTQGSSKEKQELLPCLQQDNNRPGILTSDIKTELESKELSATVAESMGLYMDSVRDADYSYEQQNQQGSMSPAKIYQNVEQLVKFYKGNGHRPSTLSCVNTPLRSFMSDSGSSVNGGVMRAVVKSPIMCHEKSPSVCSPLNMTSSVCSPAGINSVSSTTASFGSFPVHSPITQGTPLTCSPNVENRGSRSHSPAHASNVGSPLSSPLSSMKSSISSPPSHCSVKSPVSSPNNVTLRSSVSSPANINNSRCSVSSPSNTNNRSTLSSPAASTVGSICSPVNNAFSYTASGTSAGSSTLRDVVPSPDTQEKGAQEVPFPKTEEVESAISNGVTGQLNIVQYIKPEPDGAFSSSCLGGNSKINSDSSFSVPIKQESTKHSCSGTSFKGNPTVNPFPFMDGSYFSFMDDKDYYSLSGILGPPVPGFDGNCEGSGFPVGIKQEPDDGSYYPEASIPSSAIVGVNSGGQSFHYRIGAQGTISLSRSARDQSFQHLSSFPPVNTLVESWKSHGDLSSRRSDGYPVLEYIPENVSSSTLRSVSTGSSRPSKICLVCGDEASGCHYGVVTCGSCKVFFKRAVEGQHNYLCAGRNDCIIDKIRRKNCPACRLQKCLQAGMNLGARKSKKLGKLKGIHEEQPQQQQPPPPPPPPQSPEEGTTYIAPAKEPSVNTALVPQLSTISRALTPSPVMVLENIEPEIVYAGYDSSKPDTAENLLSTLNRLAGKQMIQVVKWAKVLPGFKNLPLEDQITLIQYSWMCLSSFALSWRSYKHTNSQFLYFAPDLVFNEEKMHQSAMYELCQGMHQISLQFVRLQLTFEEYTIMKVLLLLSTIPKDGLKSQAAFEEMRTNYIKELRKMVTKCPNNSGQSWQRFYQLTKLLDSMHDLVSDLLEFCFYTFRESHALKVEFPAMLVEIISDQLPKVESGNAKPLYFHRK
Method: as §1, §2, §3

C[C@@H]1COc2c(ccc3[nH]c(=O)cc(C(F)(F)F)c23)N1 [Compound 101, (3R)-2,3,4,7-Tetrahydro-3-methyl-10-(trifluoromethyl)-8H-[1,4]oxazino[2,3-f]quinolin-8-one]
> 10 µM: EC50 (PR) | EC50 (ER) | IC50 (ER) | IC50 (GR) | IC50 (MR)

CCN1c2ccc3[nH]c(=O)cc(C(F)(F)F)c3c2OC[C@H]1C [Compound 103, (3R)-4-Ethyl-2,3,4,7-tetrahydro-3-methyl-10-(trifluoromethyl)-8H-[1,4]oxazino[2,3-f]quinolin-8-one]
> 10 µM: EC50 (PR) | EC50 (ER) | IC50 (ER) | IC50 (GR) | IC50 (MR)
